Results from the supplement of paper PMC10307832.

What was measured:
Experiment in all cases: relative viability (nuclei count vs DMSO), 5 days (fraction); higher = more cells survive
[1] = tested on: PC-14
Method in brief: (§1)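 Five library-drug doses in √10 steps were combined with a fixed anchor-drug dose, or a single drug was given alone, by pin tool to lung cancer cell lines in 1536-well plates the day after seeding. Nuclei were stained and counted after 5 days. Relative viability is the nuclei count in treated wells over that in vehicle wells, taken as the median of duplicate plates.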

[2] = tested on: SK-MES-1
Method in brief: as §1

[3] = tested on: NCI-H2087
Method in brief: as §1

[4] = tested on: NCI-H596
Method in brief: as §1

[5] = tested on: ChaGo-K-1
Method in brief: as §1

[6] = tested on: H3255
Method in brief: as §1

[7] = tested on: NCI-H1755
Method in brief: as §1

[8] = tested on: EMC-BAC-2
Method in brief: as §1

[9] = tested on: 201T
Method in brief: as §1

[10] = tested on: NCI-H2126
Method in brief: as §1

[11] = tested on: NCI-H322M
Method in brief: as §1

[12] = tested on: NCI-H2009
Method in brief: as §1

[13] = tested on: ABC-1
Method in brief: as §1

[14] = tested on: LXF-289
Method in brief: as §1

[15] = tested on: HOP-62
Method in brief: as §1

[16] = tested on: NCI-H3122
Method in brief: as §1

[17] = tested on: CAL-12T
Method in brief: as §1

[18] = tested on: NCI-H1651
Method in brief: as §1

[19] = tested on: LK-2
Method in brief: as §1

[20] = tested on: NCI-H441
Method in brief: as §1

[21] = tested on: NCI-H1734
Method in brief: as §1

[22] = tested on: NCI-H2170
Method in brief: as §1

[23] = tested on: NCI-H647
Method in brief: as §1

Which relative viability ([1]; first compound 0.253 µM) does the source give for `O=c1[nH]c2ccccc2n1C1CCN(CCCC(c2ccc(F)cc2)c2ccc(F)cc2)CC1` [Pimozide] + CCNC(=O)c1noc(-c2cc(C(C)C)c(O)cc2O)c1-c1ccc(CN2CCOCC2)cc1 [Luminespib] (partner 0.01 µM) here?
The relative viability was 0.181.

And the relative viability ([1]; first compound 2.53 µM)?
The relative viability was 0.15.

What about the relative viability ([1]; first compound 8 µM) of the same compound?
Its relative viability is 0.111.

What about the relative viability ([2]; first compound 0.08 µM) of the same compound?
The relative viability was 0.859.

What about the relative viability ([2]; first compound 0.253 µM) of the same compound?
Its relative viability is 0.766.

What about the relative viability ([2]; first compound 0.8 µM) of the same compound?
The relative viability was 0.702.

What about the relative viability ([2]; first compound 2.53 µM) of the same compound?
Its relative viability is 0.815.

And the relative viability ([2]; first compound 8 µM)?
The relative viability was 0.596.

And the relative viability ([3]; first compound 0.08 µM)?
The relative viability was 0.192.

And the relative viability ([3]; first compound 0.253 µM)?
Its relative viability is 0.205.

And the relative viability ([3]; first compound 2.53 µM)?
The relative viability was 0.171.

And the relative viability ([3]; first compound 8 µM)?
Its relative viability is 0.228.

What about the relative viability ([4]; first compound 0.08 µM) of the same compound?
Its relative viability is 0.97.

What about the relative viability ([4]; first compound 0.253 µM) of the same compound?
The relative viability was 1.11.

What about the relative viability ([4]; first compound 0.8 µM) of the same compound?
The relative viability was 1.11.

And the relative viability ([4]; first compound 2.53 µM)?
Its relative viability is 0.776.

What about the relative viability ([4]; first compound 8 µM) of the same compound?
The relative viability was 0.847.

And the relative viability ([5]; first compound 0.08 µM)?
Its relative viability is 0.48.

What about the relative viability ([5]; first compound 0.253 µM) of the same compound?
Its relative viability is 0.472.

And the relative viability ([5]; first compound 0.8 µM)?
Its relative viability is 0.375.

What about the relative viability ([5]; first compound 2.53 µM) of the same compound?
Its relative viability is 0.496.

And the relative viability ([5]; first compound 8 µM)?
Its relative viability is 0.484.

What about the relative viability ([6]; first compound 0.253 µM) of the same compound?
Its relative viability is 0.926.

And the relative viability ([6]; first compound 0.8 µM)?
The relative viability was 0.684.

What about the relative viability ([6]; first compound 2.53 µM) of the same compound?
The relative viability was 0.883.

What about the relative viability ([6]; first compound 8 µM) of the same compound?
The relative viability was 0.799.

What about the relative viability ([7]; first compound 0.08 µM) of the same compound?
The relative viability was 0.433.

What about the relative viability ([7]; first compound 0.253 µM) of the same compound?
Its relative viability is 0.418.

What about the relative viability ([7]; first compound 0.8 µM) of the same compound?
Its relative viability is 0.373.

And the relative viability ([7]; first compound 2.53 µM)?
The relative viability was 0.526.

And the relative viability ([7]; first compound 8 µM)?
Its relative viability is 0.476.

And the relative viability ([8]; first compound 0.08 µM)?
The relative viability was 1.13.

And the relative viability ([8]; first compound 0.253 µM)?
The relative viability was 1.1.

And the relative viability ([8]; first compound 0.8 µM)?
Its relative viability is 1.18.

What about the relative viability ([8]; first compound 2.53 µM) of the same compound?
Its relative viability is 1.18.

And the relative viability ([8]; first compound 8 µM)?
The relative viability was 1.16.

What about the relative viability ([9]; first compound 0.08 µM) of the same compound?
The relative viability was 1.05.

What about the relative viability ([9]; first compound 0.253 µM) of the same compound?
Its relative viability is 1.02.

And the relative viability ([9]; first compound 0.8 µM)?
Its relative viability is 0.971.

What about the relative viability ([9]; first compound 2.53 µM) of the same compound?
The relative viability was 0.961.

And the relative viability ([9]; first compound 8 µM)?
Its relative viability is 0.912.

What about the relative viability ([10]; first compound 0.08 µM) of the same compound?
Its relative viability is 0.901.

And the relative viability ([10]; first compound 0.253 µM)?
The relative viability was 0.889.

And the relative viability ([10]; first compound 0.8 µM)?
The relative viability was 0.842.

What about the relative viability ([10]; first compound 2.53 µM) of the same compound?
Its relative viability is 0.877.

What about the relative viability ([10]; first compound 8 µM) of the same compound?
The relative viability was 0.839.

And the relative viability ([11]; first compound 0.253 µM)?
Its relative viability is 0.899.

What about the relative viability ([11]; first compound 0.8 µM) of the same compound?
The relative viability was 0.858.

And the relative viability ([11]; first compound 2.53 µM)?
Its relative viability is 0.942.

And the relative viability ([11]; first compound 8 µM)?
Its relative viability is 0.743.

What about the relative viability ([12]; first compound 0.08 µM) of the same compound?
The relative viability was 0.984.

And the relative viability ([12]; first compound 0.253 µM)?
The relative viability was 1.01.

And the relative viability ([12]; first compound 0.8 µM)?
The relative viability was 0.981.

What about the relative viability ([12]; first compound 2.53 µM) of the same compound?
The relative viability was 1.05.

What about the relative viability ([12]; first compound 8 µM) of the same compound?
Its relative viability is 0.842.

And the relative viability ([13]; first compound 0.08 µM)?
The relative viability was 0.75.

What about the relative viability ([13]; first compound 0.253 µM) of the same compound?
Its relative viability is 0.519.

And the relative viability ([13]; first compound 0.8 µM)?
Its relative viability is 0.367.

What about the relative viability ([13]; first compound 2.53 µM) of the same compound?
The relative viability was 0.675.

And the relative viability ([13]; first compound 8 µM)?
Its relative viability is 0.433.

What about the relative viability ([14]; first compound 0.08 µM) of the same compound?
The relative viability was 0.642.

And the relative viability ([14]; first compound 0.253 µM)?
The relative viability was 0.634.

What about the relative viability ([14]; first compound 0.8 µM) of the same compound?
Its relative viability is 0.702.

What about the relative viability ([14]; first compound 2.53 µM) of the same compound?
Its relative viability is 0.664.

What about the relative viability ([14]; first compound 8 µM) of the same compound?
Its relative viability is 0.632.

And the relative viability ([15]; first compound 0.08 µM)?
Its relative viability is 0.995.

And the relative viability ([15]; first compound 0.253 µM)?
The relative viability was 0.875.

What about the relative viability ([15]; first compound 0.8 µM) of the same compound?
The relative viability was 0.709.

What about the relative viability ([15]; first compound 2.53 µM) of the same compound?
Its relative viability is 0.904.

And the relative viability ([15]; first compound 8 µM)?
Its relative viability is 0.873.

What about the relative viability ([16]; first compound 0.08 µM) of the same compound?
The relative viability was 0.109.

What about the relative viability ([16]; first compound 0.253 µM) of the same compound?
The relative viability was 0.0961.

And the relative viability ([16]; first compound 0.8 µM)?
The relative viability was 0.105.

And the relative viability ([16]; first compound 2.53 µM)?
The relative viability was 0.0832.

What about the relative viability ([16]; first compound 8 µM) of the same compound?
Its relative viability is 0.0656.

And the relative viability ([17]; first compound 0.08 µM)?
Its relative viability is 0.305.

What about the relative viability ([17]; first compound 0.253 µM) of the same compound?
Its relative viability is 0.408.

And the relative viability ([17]; first compound 0.8 µM)?
The relative viability was 0.186.

What about the relative viability ([17]; first compound 2.53 µM) of the same compound?
The relative viability was 0.514.

And the relative viability ([17]; first compound 8 µM)?
Its relative viability is 0.168.

What about the relative viability ([18]; first compound 0.08 µM) of the same compound?
The relative viability was 0.91.

What about the relative viability ([18]; first compound 0.253 µM) of the same compound?
The relative viability was 0.756.

What about the relative viability ([18]; first compound 0.8 µM) of the same compound?
The relative viability was 0.696.

And the relative viability ([18]; first compound 2.53 µM)?
The relative viability was 0.867.

And the relative viability ([18]; first compound 8 µM)?
Its relative viability is 0.807.

And the relative viability ([19]; first compound 0.08 µM)?
The relative viability was 0.18.

What about the relative viability ([19]; first compound 0.253 µM) of the same compound?
The relative viability was 0.165.

And the relative viability ([19]; first compound 2.53 µM)?
The relative viability was 0.18.

What about the relative viability ([19]; first compound 8 µM) of the same compound?
Its relative viability is 0.188.

What about the relative viability ([20]; first compound 0.08 µM) of the same compound?
The relative viability was 0.413.

And the relative viability ([20]; first compound 0.253 µM)?
Its relative viability is 0.404.

What about the relative viability ([20]; first compound 0.8 µM) of the same compound?
The relative viability was 0.332.

What about the relative viability ([20]; first compound 2.53 µM) of the same compound?
Its relative viability is 0.311.

And the relative viability ([20]; first compound 8 µM)?
Its relative viability is 0.3.

What about the relative viability ([21]; first compound 0.08 µM) of the same compound?
Its relative viability is 0.168.

What about the relative viability ([21]; first compound 0.253 µM) of the same compound?
Its relative viability is 0.17.

What about the relative viability ([21]; first compound 2.53 µM) of the same compound?
The relative viability was 0.154.

What about the relative viability ([21]; first compound 8 µM) of the same compound?
The relative viability was 0.374.

And the relative viability ([22]; first compound 0.08 µM)?
The relative viability was 0.527.

What about the relative viability ([22]; first compound 0.253 µM) of the same compound?
Its relative viability is 0.73.

And the relative viability ([22]; first compound 0.8 µM)?
The relative viability was 0.779.

And the relative viability ([22]; first compound 2.53 µM)?
Its relative viability is 0.624.

And the relative viability ([22]; first compound 8 µM)?
Its relative viability is 0.671.

And the relative viability ([23]; first compound 0.08 µM)?
The relative viability was 0.095.

And the relative viability ([23]; first compound 0.253 µM)?
The relative viability was 0.0882.

And the relative viability ([23]; first compound 0.8 µM)?
The relative viability was 0.196.

And the relative viability ([23]; first compound 2.53 µM)?
The relative viability was 0.096.

What about the relative viability ([23]; first compound 8 µM) of the same compound?
Its relative viability is 0.109.
